The record followed here is patent US20160039880A1 (priority 2012, published 2016).

Each structure is given as a SMILES string. Like-named read-outs stand apart in the source and are kept apart here. Bounds are passed on as bounds.

The nature of data set [1]: Water Solubility Assay (measured in pH 7.8 buffer).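 Also: precipitation onset detected as rise in absorbance at 650 nm across increasing concentrations, after shaking for 18 h, blank wells receiving DMSO only.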 Format: physicochemical.
Protocol: The aqueous solubility of a compound of Formula I in buffer (pH 7.8) was measured by recording the onset of precipitation of the compound as a function of increasing concentration. The onset of precipitation, if it occurred, was detected by an increase in absorbance at 650 nm.
Assay Buffer: 35 mM HEPES pH 7.8
Stock solutions of Control and Test Compounds: 10 mM in 100% DMSO
10 mM stock solutions of control and test compounds were prepared in 100% DMSO.
Assay buffer (247.5 μl) was placed into flat bottomed transparent 96-well plate. For blank samples DMSO (2.5 μl) was added. For test and control samples 2.5 μl of the appropriate DMSO dilution stocks were added to the appropriate well. All test and control compounds were performed in triplicate.
The plates were sealed with adhesive plate seal and shaken at 250 rpm at 25° C. for 18 h on a plate shaker.
After incubation the plate seals were taken off and any bubbles observed in wells removed. The plates were read on a SpectraMaxM5 with a 5 s pre-shake at 650 nm.
Data files were transferred to the appropriate worksheet and the solubility range of the compounds was calculated from the data.
Data set [2] deals with T1, Human recombinant cyclophilin A (Cyp A) (Homo sapiens, UniProt P62937). Briefly: Protease-free PPIase assay.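 Also: cis to trans isomerization of SUC-AAPF-pNA by 2 nM enzyme, read as absorbance at 330 nm over 300 s at 10 °C, catalytic rate corrected for uncatalyzed background.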 Conditions: read-out: Protease-free PPIase Assay Ki.
Another data set has as its target Calcineurin (Homo sapiens, UniProt P62937+P63098+Q08209). Description: Calcineurin Phosphatase (CaN) Assay with Cyp A (+CypA). Conditions: read-out: Calcineurin Phosphatase (CaN) Assay (+CypA) IC50, in the presence of Cyp A.
Data set [3] has as its target T1, Human recombinant cyclophilin A (Cyp A).
Where [4] appears, read: 35 mM HEPES pH 7.8, 1% DMSO, 25 °C, 18 h, read-out: Water Solubility Assay, concentration at which the compound remains in solution.
[5] abbreviates: pH 7.8, read-out: Water Solubility Assay.
The mark [6] stands for this setting: Cyclophilin A (Cyp A) inhibitory activity.

T1 sequence (P62937 whole entry): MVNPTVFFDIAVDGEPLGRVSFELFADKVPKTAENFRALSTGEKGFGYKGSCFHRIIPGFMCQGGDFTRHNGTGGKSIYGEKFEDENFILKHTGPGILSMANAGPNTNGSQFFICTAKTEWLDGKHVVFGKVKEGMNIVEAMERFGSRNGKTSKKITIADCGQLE
Sequence of Calcineurin (P63098 whole entry, other chains not shown): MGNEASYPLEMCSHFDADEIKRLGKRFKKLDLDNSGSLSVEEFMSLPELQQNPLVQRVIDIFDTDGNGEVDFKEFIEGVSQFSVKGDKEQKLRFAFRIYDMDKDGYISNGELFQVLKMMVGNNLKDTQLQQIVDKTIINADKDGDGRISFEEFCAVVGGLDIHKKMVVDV
Sequence of Calcineurin (P62937 whole entry, other chains not shown): as the sequence (P62937 whole entry) above

The term Ki denotes a dissociation constant, usually derived from enzyme kinetics or from competition with a known ligand. One may read the IC50 as the midpoint of a concentration-inhibition curve. On to `CC[C@@H]1NC(=O)[C@H]([C@H](O)[C@H](C)CCCC(=O)N2C[C@H]3CN(C)C[C@H]3C2)N(C)C(=O)[C@H](C(C)C)N(C)C(=O)[C@H](CC(C)C)N(C)C(=O)[C@H](CC(C)C)N(C)C(=O)[C@@H](C)NC(=O)[C@H](C)NC(=O)[C@H](CC(C)C)N(C)C(=O)[C@H](C(C)C)NC(=O)[C@H](CC(C)C)N(C)C(=O)[C@@H](C)N(C)C1=O` (relative stereo) [Compound ZZ, [(5R,6R,7S)-6-hydroxy-5-methyl-7-(methylamino)-1-(N-(3aR*,6aS*)-2-methyloctahydropyrrolo[3,4-c]pyrrolo)-1-oxo-octanoic acid]1[(R)-methyl-Sar]3 cyclosporin A], for which, in data set [1] (setting [4]), the solubility at 18 h was over 100 µM. In addition, in data set [2] (cyclophilin A, 10 °C), the inhibition constant Ki was 2.6 nM. The IC50 at Calcineurin (1:1 complex with inhibitor) was over 10000 nM.

With `CCC1NC(=O)C(C(O)C(C)CCN2CCCOCC2)N(C)C(=O)C(C(C)C)N(C)C(=O)C(CC(C)C)N(C)C(=O)C(CC(C)C)N(C)C(=O)C(C)NC(=O)C(C)NC(=O)C(CC(C)C)N(C)C(=O)C(C(C)C)NC(=O)C(CC(C)C)N(C)C(=O)C(COCCN(CC)CC)N(C)C1=O` [Compound AD, [(3R,4R,5S)-4-Hydroxy-3-methyl-5-(methylamino)-1-N-homomorpholino-hexanoic acid]^1[(R)-2-diethylaminoethyloxymethyl-Sar]^3 cyclosporin A], the Ki in data set [2] (cyclophilin A, 10 °C) stood at 18 nM. At Calcineurin (1:1 complex with inhibitor), the concentration for half-maximal inhibition (IC50) is over 10000 nM.

For the compound `CCC1NC(=O)C(C(O)C(C)CCCC(=O)NCCS(=O)(=O)N(C)C)N(C)C(=O)C(C(C)C)N(C)C(=O)C(CC(C)C)N(C)C(=O)C(CC(C)C)N(C)C(=O)C(C)NC(=O)C(C)NC(=O)C(CC(C)C)N(C)C(=O)C(C(C)C)NC(=O)C(CC(C)C)N(C)C(=O)C(C)N(C)C1=O` [Compound W, [(5R,6R,7S)-6-hydroxy-5-methyl-7-(methylamino)-1-(2-{sulfonic acid dimethylamide}-ethylamino)-1-oxo-octanoic acid]^1[(R)-methyl-Sar]^3 cyclosporin A], the solubility at 18 h in data set [1] (setting [4]) is reported as over 100 µM. The Ki in data set [3] amounted to 1.9 nM.

For `CCC1NC(=O)C(C(O)C(C)CCCC(=O)NCCc2c[nH]cn2)N(C)C(=O)C(C(C)C)N(C)C(=O)C(CC(C)C)N(C)C(=O)C(CC(C)C)N(C)C(=O)C(C)NC(=O)C(C)NC(=O)C(CC(C)C)N(C)C(=O)C(C(C)C)NC(=O)C(CC(C)C)N(C)C(=O)C(C)N(C)C1=O` [Compound Y, [(5R,6R,7S)-6-hydroxy-5-methyl-7-(methylamino)-1-(2-{1H-imidazol-4-yl}-ethylamino)-1-oxo-octanoic acid]^1[(R)-methyl-Sar]^3 cyclosporin A], the solubility at 18 h in data set [1] (setting [4]) is over 100 µM. Besides, the inhibition constant (Ki) in data set [3] is 4.1 nM.

With `CC[C@H]1NC(=O)[C@@H]([C@H](O)[C@H](C)CCCC(=O)N2CCOCC2)N(C)C(=O)[C@@H](C(C)C)N(C)C(=O)[C@@H](CC(C)C)N(C)C(=O)[C@@H](CC(C)C)N(C)C(=O)[C@H](C)NC(=O)[C@@H](C)NC(=O)[C@@H](CC(C)C)N(C)C(=O)[C@@H](C(C)C)NC(=O)[C@H](CC(C)C)N(C)C(=O)CN(C)C1=O` [Compound E, [(5R,6R,7S)-6-hydroxy-5-methyl-7-(methylamino)-1-N-morpholino-1-oxo-octanoic acid]^1 cyclosporin A], the IC50 at Calcineurin (1:1 complex with inhibitor) is over 10000 nM.

In the case of `CCC1NC(=O)C(C(O)C(C)CCN2CCCN(C)CC2)N(C)C(=O)C(C(C)C)N(C)C(=O)C(CC(C)C)N(C)C(=O)C(CC(C)C)N(C)C(=O)C(C)NC(=O)C(C)NC(=O)C(CC(C)C)N(C)C(=O)C(C(C)C)NC(=O)C(CC(C)C)N(C)C(=O)C(C)N(C)C1=O` [Compound EG, [[(3R,4R,5S)-4-Hydroxy-3-methyl-5-(methylamino)-1-(4-methyl-[1,4]diazepan-1-yl)-hexanoic acid]^1[(R)-methyl-Sar]^3 cyclosporin A], the solubility at 18 h in data set [1] (setting [5]) is over 100 µM. Also, the inhibition constant Ki in data set [3] came out at 8.2 nM.

As to `CCC1NC(=O)C(C(O)C(C)CCN2CCn3cc(C(F)(F)F)nc3C2)N(C)C(=O)C(C(C)C)N(C)C(=O)C(CC(C)C)N(C)C(=O)C(CC(C)C)N(C)C(=O)C(C)NC(=O)C(C)NC(=O)C(CC(C)C)N(C)C(=O)C(C(C)C)NC(=O)C(CC(C)C)N(C)C(=O)C(C)N(C)C1=O` [Compound EE, [(3R,4R,5S)-4-Hydroxy-3-methyl-5-(methylamino)-1-(2-trifluoromethyl-5,6-dihydro-8H-imidazo[1,2-a]pyrazin-7-yl)-hexanoic acid]^1[(R)-methyl-Sar]^3 cyclosporin A], the inhibitory constant (Ki) in data set [2] (setting [6]) was 9.1 nM. The IC50 at Calcineurin was over 10000 nM.

Take `CC[C@H]1NC(=O)[C@@H]([C@H](O)[C@H](C)CCN2CCOCC2)N(C)C(=O)[C@@H](C(C)C)N(C)C(=O)[C@@H](CC(C)C)N(C)C(=O)[C@@H](CC(C)C)N(C)C(=O)[C@H](C)NC(=O)[C@@H](C)NC(=O)[C@@H](CC(C)C)N(C)C(=O)[C@@H](C(C)C)NC(=O)[C@H](CC(C)C)N(C)C(=O)[C@@H](SC)N(C)C1=O` [Compound K, [(3R,4R,5S)-4-hydroxy-3-methyl-5-(methylamino)-1-N-morpholino-hexanoic acid]^1[(S)-thiomethyl-Sar]^3 cyclosporin A]: at Calcineurin (1:1 complex with inhibitor), the IC50 was over 10000 nM.

Consider `CCC1NC(=O)C(C(O)C(C)CCN2CCOCC2C(F)(F)F)N(C)C(=O)C(C(C)C)N(C)C(=O)C(CC(C)C)N(C)C(=O)C(CC(C)C)N(C)C(=O)C(C)NC(=O)C(C)NC(=O)C(CC(C)C)N(C)C(=O)C(C(C)C)NC(=O)C(CC(C)C)N(C)C(=O)C(C)N(C)C1=O` (mixture of isomers) [Compound EC, [(3R,4R,5S)-4-Hydroxy-3-methyl-5-(methylamino)-1-(3-trifluoromethyl-morpholin-4-yl)-hexanoic acid]^1[(R)-methyl-Sar]^3 cyclosporin A], for which, in data set [2] (setting [6]), the inhibition constant Ki stood at 5.2 nM. For the same compound, the IC50 on Calcineurin was over 10000 nM.

`CCC1NC(=O)C(C(O)C(C)CCN2CC(OC)C2)N(C)C(=O)C(C(C)C)N(C)C(=O)C(CC(C)C)N(C)C(=O)C(CC(C)C)N(C)C(=O)C(C)NC(=O)C(C)NC(=O)C(CC(C)C)N(C)C(=O)C(C(C)C)NC(=O)C(CC(C)C)N(C)C(=O)C(C)N(C)C1=O` [Compound EH, [[(3R,4R,5S)-4-Hydroxy-1-(3-methoxy-azetidin-1-yl)-3-methyl-5-(methylamino)-hexanoic acid]^1[(R)-methyl-Sar]^3 cyclosporin A]: the solubility at 18 h in data set [1] (setting [5]) was over 100 µM. In addition, the Ki in data set [3] was 17 nM.

For `CC[C@H]1NC(=O)[C@@H]([C@H](O)[C@H](C)CCCC(=O)N2CCS(=O)(=O)CC2)N(C)C(=O)[C@@H](C(C)C)N(C)C(=O)[C@@H](CC(C)C)N(C)C(=O)[C@@H](CC(C)C)N(C)C(=O)[C@H](C)NC(=O)[C@@H](C)NC(=O)[C@@H](CC(C)C)N(C)C(=O)[C@@H](C(C)C)NC(=O)[C@H](CC(C)C)N(C)C(=O)[C@@H](C)N(C)C1=O` [Compound Z, [(5R,6R,7S)-6-hydroxy-5-methyl-7-(methylamino)-1-({1,1-dioxo}thiomorpholin-4-yl)-1-oxo-octanoic acid]^1[(R)-methyl-Sar]^3 cyclosporin A], in data set [1] (setting [4]), the solubility at 18 h was over 100 µM. In addition, in data set [3], the inhibition constant Ki amounted to 2 nM.

For `CCC1NC(=O)C(C(O)C(C)CCN2CCCCO2)N(C)C(=O)C(C(C)C)N(C)C(=O)C(CC(C)C)N(C)C(=O)C(CC(C)C)N(C)C(=O)C(C)NC(=O)C(C)NC(=O)C(CC(C)C)N(C)C(=O)C(C(C)C)NC(=O)C(CC(C)C)N(C)C(=O)C(C)N(C)C1=O` [Compound ED, [(3R,4R,5S)-4-Hydroxy-3-methyl-5-(methylamino)-1-([1,2]oxazinan-2-yl)-hexanoic acid]^1[(R)-methyl-Sar]^3 cyclosporin A], the Ki in data set [2] (setting [6]) is 3.8 nM. Moreover, the IC50 at Calcineurin is over 10000 nM.

With `CC[C@H]1NC(=O)[C@@H]([C@H](O)[C@H](C)CCCC(=O)N(CC)CC)N(C)C(=O)[C@@H](C(C)C)N(C)C(=O)[C@@H](CC(C)C)N(C)C(=O)[C@@H](CC(C)C)N(C)C(=O)[C@H](C)NC(=O)[C@@H](C)NC(=O)[C@@H](CC(C)C)N(C)C(=O)[C@@H](C(C)C)NC(=O)[C@H](CC(C)C)N(C)C(=O)[C@@H](C)N(C)C1=O` [Compound U, [(5R,6R,7S)-6-hydroxy-5-methyl-7-(methylamino)-1-diethylamino-1-oxo-octanoic acid]^1[(R)-methyl-Sar]^3 cyclosporin A], the inhibition constant Ki in data set [2] (cyclophilin A, 10 °C) turned out to be 4 nM. Besides, at Calcineurin (1:1 complex with inhibitor), the half-maximal inhibitory concentration (IC50) was over 10000 nM.

Take `CCC1NC(=O)C(C(O)C(C)CCN2CCCCC2C(F)(F)F)N(C)C(=O)C(C(C)C)N(C)C(=O)C(CC(C)C)N(C)C(=O)C(CC(C)C)N(C)C(=O)C(C)NC(=O)C(C)NC(=O)C(CC(C)C)N(C)C(=O)C(C(C)C)NC(=O)C(CC(C)C)N(C)C(=O)C(C)N(C)C1=O` (mixture of isomers) [Compound EB, [(3R,4R,5S)-4-Hydroxy-3-methyl-5-(methylamino)-1-(2-trifluoromethyl-piperidin-1-yl)-hexanoic acid]^1[(R)-methyl-Sar]^3 cyclosporin A]: in data set [2] (setting [6]), the Ki amounted to 3.7 nM. Besides, the IC50 on Calcineurin was over 10000 nM.

As to `CC[C@H]1NC(=O)[C@@H]([C@H](O)[C@H](C)CCCC(=O)NCCOC)N(C)C(=O)[C@@H](C(C)C)N(C)C(=O)[C@@H](CC(C)C)N(C)C(=O)[C@@H](CC(C)C)N(C)C(=O)[C@H](C)NC(=O)[C@@H](C)NC(=O)[C@@H](CC(C)C)N(C)C(=O)[C@@H](C(C)C)NC(=O)[C@H](CC(C)C)N(C)C(=O)[C@@H](C)N(C)C1=O` [Compound ZY, [(5R,6R,7S)-6-hydroxy-5-methyl-7-(methylamino)-1-(2-methoxyethylamino)-1-oxo-octanoic acid]1[(R)-methyl-Sar]3 cyclosporin A], the “Water Solubility Assay, concentration at which the compound remains in solution” value in data set [1] (35 mM HEPES pH 7.8, 1% DMSO, 25 °C, 18 h) was in the range of 75 to 100 µM. Further, in data set [3], the inhibitory constant (Ki) is 5.7 nM.
